Results published in patent US11529324B2, “Use of Kv11.1 channel inhibitors for treatment of pulmonary hypertension” (Georgetown University, priority 2019, dated 2022).

How the values were obtained:
[1] = tested on: PAH-induced SD rats; assay: Lower doses of dofetilide in SU5416/hypoxia PAH-induced and healthy SD rats, H&E lung histology (Example 6); format: in vivo, rat
Experimental: (§1) Male SD and Fischer rats were purchased from Charles River Laboratories International, Inc., (Wilmington, Mass., USA). To induce PAH, rats were subcutaneously injected with 20 mg/kg body weight SU5416 (inhibitor of vascular endothelial growth factor (VEGF) receptor Flk/1-KDR; MedChemExpress, Monmouth Junction, N.J., USA) and maintained in hypoxia^28-30. For hypoxia, animals were placed in a chamber (30″ w×20″ d×20″ h) regulated by an OxyCycler Oxygen Profile Controller (Model A84XOV; BioSpherix, Redfield, N.Y., USA) set to maintain 10% O2 with an influx of N2 gas, located in the animal care facility at the Georgetown University Medical Center. […] Animals were fed normal rat chow.
(§2) In a second experiment to determine the effects of dofetilide, SD rats are divided into 4 groups that are treated with (1) DMSO, (2) dofetilide, (3) DMSO+SU5416/Hypoxia, and (4) dofetilide+SU5416/Hypoxia, respectively (n=4 for each group). Dofetilide (1000 μg/kg body weight) is dissolved in DMSO and injected intraperitoneally before the injection of SU5416. For histological examination, lung tissues are fixed in 10% formalin and embedded in paraffin.
as §2, with “third” for “second”, “(100” for “(1000”
as §2, with “fourth” for “second”, “(10” for “(1000”
To examine further if pharmacological inhibition of Kv11.1 channels would affect PAH progression, healthy and PAH-induced SD rats are treated with Kv11.1 channel-specific blocker dofetilide using lower doses (1 mg/kg, 0.1 mg/kg, 0.01 mg/kg, or 0.001 mg/kg) than was used in Example 5. Lung tissues from four groups of SD rats (four rats in each group) are examined with H&E staining. […] PAH-induced rats in Group (3) have increased intimal endothelial cell proliferation, increased SPAMWT, and reduced pulmonary arterial lumen diameter compared to control rats.

[2] = tested on: PAH-induced SD rats; assay: Dofetilide treatment of SU5416/hypoxia PAH-induced and healthy SD rats, H&E lung histology and morphometric analysis (Example 5); format: in vivo, rat
Experimental: as §1
In a first experiment to determine the effects of a Kv11.1 inhibitor (dofetilide), SD rats were divided into 4 groups that were treated with (1) DMSO, (2) dofetilide, (3) DMSO+SU5416/Hypoxia, and (4) dofetilide+SU5416/Hypoxia, respectively (n=4 for each group). Dofetilide (10 mg/kg body weight) was dissolved in DMSO and injected intraperitoneally before the injection of SU5416. For histological examination, lung tissues were fixed in 10% formalin and embedded in paraffin. The Georgetown University Animal Care and Use Committee approved all animal experiments, and the investigation conformed to the National Institutes of Health Guide for the Care and Use of Laboratory Animals.
Paraffin-embedded tissues were cut and mounted on glass slides. Tissue sections were subjected to hematoxylin and eosin (H&E) stain and immunohistochemistry using anti-smooth muscle actin (anti-SMA) antibody (Abcam, Cambridge, UK) and Kv11.1 antibody (Alomone Labs, Jerusalem, Israel).
Lung slides were analyzed for pulmonary artery wall thickness. 30 vessels were analyzed per animal in each group, and four values of external and internal diameters for thickness were measured for each vessel. The wall thickness was calculated as difference of external and internal diameters by using Fiji software.
Means±SEM were calculated and then comparisons between two groups were analyzed using a two-tailed Student's t test, while comparisons between three or more groups were analyzed using ANOVA with a Student-Newman-Keuls post-hoc test. P<0.05 was considered to be significant.
To determine if pharmacological inhibition of Kv11.1 channels would affect PAH progression, healthy and PAH-induced SD rats were treated with Kv11.1 channel-specific blocker dofetilide. Lung tissues from four groups of SD rats (four rats in each group) were examined with H&E staining. […] PAH-induced rats in group (3) had increased intimal endothelial cell proliferation, increased SPAMWT, and reduced pulmonary arterial lumen diameter compared to control rats (FIGS. 6A and 6B).

[3] = PAH-induced SD rats, dofetilide lower doses (1, 0.1, 0.01 or 0.001 mg/kg) i.p., Group (4) compared with Group (3)
[4] = PAH-induced (SU5416/hypoxia) SD rats, dofetilide 10 mg/kg i.p. before SU5416, group (4) compared with PAH-induced group (3)

CN(CCOc1ccc(NS(C)(=O)=O)cc1)CCc1ccc(NS(C)(=O)=O)cc1 [dofetilide]
pulmonary arterial lumen diameter [1, 3]: increased | small pulmonary arterial media wall thickness (SPAMWT) [1, 3]: reduced | PAH-induced changes in SPAMWT ([1]; dofetilide lower doses (1, 0.1, 0.01 or 0.001 mg/kg), SPAMWT of Group (4) statistically similar to control Group (2)): completely eliminates | small pulmonary arterial media wall thickness (SPAMWT) in control rats ([1]; healthy SD rats, dofetilide lower doses Group (2) versus DMSO Group (1)): no statistical differences | pulmonary arterial lumen diameter [2, 4]: increased | small pulmonary arterial media wall thickness (SPAMWT) [2, 4]: reduced | PAH-induced changes in SPAMWT ([2]; dofetilide 10 mg/kg i.p., SPAMWT of PAH-induced dofetilide-treated group (4) statistically similar to control group (2)): completely eliminated | small pulmonary arterial media wall thickness (SPAMWT) in control rats ([2]; healthy SD rats, dofetilide 10 mg/kg i.p. group (2) versus DMSO group (1), data not shown): no statistical differences
